# Columns and labels:
# [1] = test system: patients with unresectable pancreatic ductal adenocarcinoma (PDAC); type: in vivo
# Source text: The present disclosure discloses a phase I/II study that evaluated the safety and efficacy of the histone deacetylase (HDAC) inhibitor, ivaltinostat, in combination with gemcitabine and erlotinib for advanced pancreatic ductal adenocarcinoma (PDAC). Patients diagnosed with unresectable, histologically confirmed PDAC who had not undergone previous therapy were eligible. […] In phase II, patients received a six-cycle treatment with the MTD of ivaltinostat determined in phase I. The primary endpoint was the objective response rate (ORR). Secondary endpoints included overall survival (OS), disease control rate (DCR), and progression-free survival (PFS). The MTD of ivaltinostat for the phase II trial was determined to be 250 mg/m^2. In phase II, 24 patients were enrolled. The median OS and PFS were 8.6 (95% confidence interval [CI]: 5.3-11.2) and 5.3 months (95% CI: 3.7-5.8). Of the 16 patients evaluated for response, ORR and DCR were 25.0% and 93.8% with a median OS/PFS of 10.8 (95% CI: 8.3-16.7)/5.8 (95% CI: 4.6-6.7) months.
# One study disclosed herein was a single-arm phase I/II clinical study. The study evaluated the efficacy and safety of ivaltinostat in combination with gemcitabine and erlotinib for advanced pancreatic cancer. […] The DLT was assessed according to the National Cancer Institute Common Toxicity Criteria version 4.0. […]
# [2] = test system: advanced pancreatic ductal adenocarcinoma (PDAC); experiment: Phase II efficacy (ORR, DCR, OS, PFS); type: in vivo, human
# Description: Both ivaltinostat and gemcitabine were administered via the same protocol as that in the phase I study, until development of unacceptable toxicity or disease progression. The entire treatment period was six cycles and could be extended to 12 cycles if the patients wanted to continue the regimen and the principal investigator agreed. Tumor assessment was evaluated at the end of every two cycles. Dose reduction or delay could be applied for intolerant patients according to the study protocol.
# The primary endpoint was the ORR, which was defined as the rate (%) of patients who had best tumor assessment with complete response (CR) or partial response (PR) during the treatment period. Secondary endpoints included disease control rate (DCR), OS, and progression-free survival (PFS). DCR was defined as the rate (%) of patients who had best tumor assessment with CR, PR, or stable disease (SD) during the treatment period. OS was defined as the time from the date of the first enrollment to the date of death from any cause. Patients who were still alive or withdrew at the date of cut off were censored. PFS was defined as the time from the date of the first enrollment to the date of tumor progression or to the date of death from any cause. Patients were followed up for survival until death, withdrawal, or study closure.
# (§1) Tumor evaluation was performed at baseline, at the end of every two cycles, and/or at the end of the trial. For patients with measurable/non-measurable lesions, the Response Evaluation Criteria in Solid Tumors version 1.1 was used to evaluate target/non-target lesions. Serial measurements of carbohydrate antigen 19-9 (CA19-9) levels were performed at baseline and at the beginning of each treatment cycle. Patients were followed up for survival until death or study closure. Safety evaluation included vital signs, adverse events (AEs), adverse drug reactions, serious AEs, ECG, and clinic al laboratory tests, which were performed on days 1, 8 and 15 each cycle. AEs were graded according to the Common Terminology Criteria for Adverse Events, version 4.0, by the National Cancer Institute.
# (§2) Full analysis set (FAS), per protocol (PP), and safety set analysis were defined according to the study protocol. FAS was defined as patients who had been evaluated for tumor response at least once after baseline. The PP analysis set included patients who received at least 70% and more of the intended study drug throughout the treatment period and without any significant violation of the protocol. The safety cohort included all patients who had received the study drug at least once.
# Statistical Analysis: To identify MTD and DLT, the 3+3 dose escalation design was utilized and based on the method of determining MTD described above. In total, 10 patients were enrolled in the phase I study. The estimated sample size for the phase II study after the determination of MTD was calculated based on Simon's 2 stage design25 with a reference of published data of 8.6% ORR from a phase III randomized controlled trial of gemcitabine and erlotinib combination therapy. Assuming a difference in response probability of study drug=20%, α=0.05, and statistical power=90%, the estimated minimally required sample size for phase II study based on binomial distribution probability may be 9 for initial stage and increase to a total of 24 patients if more than one patient had responded to the study drug during the initial stage. The safety analysis included all patients who had received a single dose of the study drug. The main efficacy analysis was based on the FAS population, defined as a group of patients who had received at least single dose of study drug and had at least one tumor response evaluation after the baseline assessment.
# [3] = test system: patients with advanced PDAC; experiment: Phase II safety and adverse events (NCI-CTCAE v4.0); type: in vivo; details: for patients with dose reduced due to occurrence of AEs: three of 24 patients
# Description: as §1
# as §2, with “protocol.” for “protocol. The safety cohort included all patients who had received the study drug at least once.”
# clinical = details: human, in vivo, iv
# Description: The MTD was defined as the dose at which one or zero patients developed a DLT among six-patient cohort. Based on the 3+3 dose escalation design, each cohort consists of three or six subjects. If one in three subjects had experienced DLT in a specific dose, the dose was administered to an additional three subjects and a total of six patients were checked for the occurrence of DLT. If two or more subjects in any cohort had experienced a DLT, the previous dose was considered MTD, and the dose escalation ended. […] Gemcitabine and erlotinib were administered as fixed doses; gemcitabine (1000 mg/m^2 intravenously), and erlotinib (100 mg/day orally), whereas ivaltinostat was administered according to the dose level for each cohort. Each cycle consisted of 28 days. Both ivaltinostat and gemcitabine were administered on days 1, 8, and 15 and erlotinib was administrate d daily for each 28-day cycle.
# [4] = test system: metastatic pancreatic cancer; details: first line; cited from earlier work
# advanced PDAC [5] = details: combined with gemcitabine; cited from earlier work
# [6] = test system: germline BRCA-mutated metastatic pancreatic cancer; details: cited from earlier work
# [7] = test system: PDAC after gemcitabine-based therapy; details: with bortezomib, seven patients enrolled; cited from earlier work
# advanced PDAC [8] = details: with gemcitabine; cited from earlier work
# pancreatic cancer = details: 1250 mg/m^2 twice daily for 2 weeks followed by a 1-week rest, first line; cited from earlier work
# [9] = FAS analysis (n=16), with gemcitabine + erlotinib
# [10] = Grade 3, treatment-related, phase II (n = 24)
# [11] = Grade 4, treatment-related, phase II (n = 24)
# [12] = Total grade 3 and 4, treatment-related, phase II (n = 24)
molecule,measurement,setting,value
"CN(C)CCCNC(=O)/C(=C/CCCCC(=O)NO)COc1cccc2ccccc12.O=P(O)(O)O [ivaltinostat, (E)-N1-(3-(dimethylamino)propyl)-N8-hydroxy-2-((naphthalen-1-yloxy)methyl)oct-2-enediamide phosphate]",dose-limiting toxicity (DLT),"[1]; human, in vivo, 28 day","One DLT, a febrile neutropenia of grade 3"
same,maximum tolerable dose (MTD) / recommended dose for phase II,"[1]; iv days 1, 8, 15 with gemcitabine 1000 mg/m2 iv and erlotinib 100 mg/day orally, 28-day cycle",250 mg/m^2
same,"PRs, % of patients",[2]; FAS analysis (n=16),25%
same,"PRs, number of patients",[2]; FAS analysis (n=16),4
same,"SDs, % of patients",[2]; FAS analysis (n=16),68.8%
same,"SDs, number of patients",[2]; FAS analysis (n=16),11
same,median OS,[2]; FAS analysis (n=16),10.8 months
same,median PFS,[2]; FAS analysis (n=16),5.8 months
same,DCR,[2]; [9],93.8%
same,ORR,[2]; [9],25.0%
same,DCR,[2]; PP analysis (n=10),100%
same,ORR,[2]; PP analysis (n=10),30%
same,"PRs, % of patients",[2]; PP analysis (n=10),30%
same,"PRs, number of patients",[2]; PP analysis (n=10),3
same,"SDs, % of patients",[2]; PP analysis (n=10),70%
same,"SDs, number of patients",[2]; PP analysis (n=10),7
same,median OS,[2]; PP analysis (n=10),11.7 months
same,median PFS,[2]; PP analysis (n=10),5.9 months
same,median OS,"[2]; all patients (n=23), ivaltinostat 250 mg/m^2 + gemcitabine 1000 mg/m^2 + erlotinib 100 mg/day",8.6 months
same,median PFS,"[2]; all patients (n=23), ivaltinostat 250 mg/m^2 + gemcitabine + erlotinib",5.3 months
same,"Anemia, % of patients",[3]; [10],(16.7) %
same,"Anemia, number of patients",[3]; [10],4
same,"Anorexia, % of patients",[3]; [10],(8.3) %
same,"Anorexia, number of patients",[3]; [10],2
same,"Fatigue, % of patients",[3]; [10],(8.3) %
same,"Fatigue, number of patients",[3]; [10],2
same,"Febrile neutropenia, % of patients",[3]; [10],(8.3) %
same,"Febrile neutropenia, number of patients",[3]; [10],2
same,"Neutropenia, % of patients",[3]; [10],(12.5) %
same,"Pneumonia, number of patients",[3]; [10],0
same,"Thrombocytopenia, % of patients",[3]; [10],(16.7) %
same,"Thrombocytopenia, number of patients",[3]; [10],4
same,"Neutropenia, number of patients","[3]; Grade 3, treatment-related, phase II (n = 24), with gemcitabine + erlotinib",3
same,"Anemia, number of patients",[3]; [11],0
same,"Anorexia, number of patients",[3]; [11],0
same,"Fatigue, number of patients",[3]; [11],0
same,"Febrile neutropenia, number of patients",[3]; [11],0
same,"Neutropenia, % of patients",[3]; [11],(20.8) %
same,"Neutropenia, number of patients",[3]; [11],5
same,"Pneumonia, % of patients",[3]; [11],(4.2) %
same,"Pneumonia, number of patients",[3]; [11],1
same,"Thrombocytopenia, % of patients",[3]; [11],(12.5) %
same,"Thrombocytopenia, number of patients",[3]; [11],3
same,"Anorexia, % of patients",[3]; [12],(8.3) %
same,"Anorexia, number of patients",[3]; [12],2
same,"Fatigue, % of patients",[3]; [12],(8.3) %
same,"Fatigue, number of patients",[3]; [12],2
same,"Febrile neutropenia, % of patients",[3]; [12],(8.3) %
same,"Febrile neutropenia, number of patients",[3]; [12],2
same,"Pneumonia, % of patients",[3]; [12],(4.2) %
same,"Pneumonia, number of patients",[3]; [12],1
same,ADR decreased appetite,"[3]; phase II, 24 subjects",11 events
same,ADR decreased platelet count,"[3]; phase II, 24 subjects",15 events
same,ADR nausea,"[3]; phase II, 24 subjects",10 events
same,ADR rash,"[3]; phase II, 24 subjects",11 events
same,ADR vomiting,"[3]; phase II, 24 subjects",10 events
same,ADRs with grade 3 or 4 severity,"[3]; phase II, 24 subjects",26
same,AEs reported,"[3]; phase II, 24 subjects",218
same,grade 5 (death) events,"[3]; phase II, 24 subjects",no grade 5 (death) events
same,adverse drug reactions (ADRs),"[3]; phase II, all 24 subjects",114
same,patients with dose reduced due to occurrence of AEs,[3]; phase II,12.5%
same,AUC(0-t),clinical; 187.5 mg/m2,28300 ng·h/mL
same,Cmax,clinical; 187.5 mg/m2,9550 ng/mL
same,half-life,clinical; 187.5 mg/m2,7.3 h
same,AUC(0-t),clinical; 250 mg/m2,35100 ng·h/mL
same,Cmax,clinical; 250 mg/m2,8060 ng/mL
same,half-life,clinical; 250 mg/m2,5.7 h
same,AUC(0-t),clinical; 312.5 mg/m2,65400 ng·h/mL
same,Cmax,clinical; 312.5 mg/m2,12800 ng/mL
same,half-life,clinical; 312.5 mg/m2,6.6 h
"Nc1ccn([C@@H]2O[C@H](CO)[C@@H](O)C2(F)F)c(=O)n1 [gemcitabine, reference compound]",patients with dose reduced due to occurrence of AEs,[3]; phase II,12.5%
FOLFIRINOX,median progression-free survival (PFS),[4],6.4 months
same,overall survival (OS),[4],11.1 months
CC(=O)Nc1ccc(C(=O)Nc2ccccc2N)cc1 [tacedinaline],clinical benefit vs gemcitabine alone,advanced PDAC [5],no advantage over gemcitabine alone
O=C(c1cc(Cc2n[nH]c(=O)c3ccccc23)ccc1F)N1CCN(C(=O)C2CC2)CC1 [olaparib],median PFS,"[6]; maintenance after ≥16 weeks of platinum-based therapy, gBRCA mutations, placebo 3.8",7.4 months
same,HR for PFS vs. placebo,[6]; p=0.004,0.53
Cc1[nH]c2ccccc2c1CCNCc1ccc(/C=C/C(=O)NO)cc1 [panovinostat],study outcome,[7],suspended due to lack of response and toxicity
Nc1ccccc1NC(=O)c1ccc(CNc2nccc(-c3cccnc3)n2)cc1 [mocetinostat],clinical activity and toxicity,advanced PDAC [8],showed only limited clinical activity
"CCCCCOC(=O)Nc1nc(=O)n([C@@H]2O[C@H](C)[C@@H](O)[C@H]2O)cc1F [Capecitabine, capecitabine]",efficacy and tolerability,pancreatic cancer,effective and tolerable
"C#Cc1cccc(Nc2ncnc3cc(OCCOC)c(OCCOC)cc23)c1 [erlotinib, reference compound]",patients with dose reduced,"[3]; phase II, 24 patients",no patient received a reduced dose

# From US12553903B2, “Ivaltinostat combination therapy for treating pancreatic cancer” (CG Pharmaceuticals, Inc, priority 2023, dated 2026)
